Patent US20090191183A1, “SUBSTITUTED INDOLES” (AUSPEX PHARMACEUTICALS, INC., priority 2007, published 2009)

Tests used:
[1] = In vitro human liver microsomal (HLM) stability assay; format: in vitro ADME; settings: vs non-isotopically enriched drug; 1 mg per mL liver microsome protein, 1 μM, 37° C.; + marks the range of the column head
Experimental: Liver microsomal stability assays are conducted at 1 mg per mL liver microsome protein with an NADPH-generating system in 2% NaHCO3 (2.2 mM NADPH, 25.6 mM glucose 6-phosphate, 6 units per mL glucose 6-phosphate dehydrogenase and 3.3 mM MgCl2). Test compounds are prepared as solutions in 20% acetonitrile-water and added to the assay mixture (final assay concentration 1 μM) and incubated at 37° C. Final concentration of acetonitrile in the assay should be <1%. Aliquots (50 μL) are taken out at times 0, 7.5, 15, 22.5, and 30 min, and diluted with ice cold acetonitrile (200 μL) to stop the reactions. Samples are centrifuged at 12,000 RPM for 10 min to precipitate proteins. Supernatants are transferred to micro centrifuge tubes and stored for LC/MS/MS analysis of the degradation half-life of the test compounds.

[2] = treatment of mild to moderate asthma; cited from earlier work
cytochrome P450 CYP3A4 = biological target: T1, cytochrome P450 CYP3A4 (Homo sapiens, UniProt P08684); settings: human liver microsomes; at concentrations near clinically achieved total plasma concentrations; cited from earlier work
T1 construct: in vitro studies using human liver microsomes; from tissue; host or cells: human liver microsomes

cytochrome P450 CYP2C9 = biological target: T2, cytochrome P450 CYP2C9 (Homo sapiens, UniProt P11712); settings: human liver microsomes; at concentrations near clinically achieved total plasma concentrations; cited from earlier work
T2 construct: in vitro studies using human liver microsomes; from tissue; host or cells: human liver microsomes
T2 sequence (P11712 whole entry): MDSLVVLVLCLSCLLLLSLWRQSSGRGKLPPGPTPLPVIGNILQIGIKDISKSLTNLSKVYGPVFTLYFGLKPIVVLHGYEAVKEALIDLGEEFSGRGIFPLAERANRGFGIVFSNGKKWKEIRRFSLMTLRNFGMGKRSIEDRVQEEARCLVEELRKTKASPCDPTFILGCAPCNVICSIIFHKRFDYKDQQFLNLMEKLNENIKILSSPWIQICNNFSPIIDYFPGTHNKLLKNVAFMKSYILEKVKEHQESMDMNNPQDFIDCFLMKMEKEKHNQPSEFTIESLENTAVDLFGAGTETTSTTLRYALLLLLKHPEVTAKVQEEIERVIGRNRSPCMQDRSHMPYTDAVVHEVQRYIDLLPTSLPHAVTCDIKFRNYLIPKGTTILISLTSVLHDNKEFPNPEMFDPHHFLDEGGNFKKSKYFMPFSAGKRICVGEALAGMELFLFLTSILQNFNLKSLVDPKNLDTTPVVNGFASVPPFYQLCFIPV

T1 sequence (P08684 whole entry): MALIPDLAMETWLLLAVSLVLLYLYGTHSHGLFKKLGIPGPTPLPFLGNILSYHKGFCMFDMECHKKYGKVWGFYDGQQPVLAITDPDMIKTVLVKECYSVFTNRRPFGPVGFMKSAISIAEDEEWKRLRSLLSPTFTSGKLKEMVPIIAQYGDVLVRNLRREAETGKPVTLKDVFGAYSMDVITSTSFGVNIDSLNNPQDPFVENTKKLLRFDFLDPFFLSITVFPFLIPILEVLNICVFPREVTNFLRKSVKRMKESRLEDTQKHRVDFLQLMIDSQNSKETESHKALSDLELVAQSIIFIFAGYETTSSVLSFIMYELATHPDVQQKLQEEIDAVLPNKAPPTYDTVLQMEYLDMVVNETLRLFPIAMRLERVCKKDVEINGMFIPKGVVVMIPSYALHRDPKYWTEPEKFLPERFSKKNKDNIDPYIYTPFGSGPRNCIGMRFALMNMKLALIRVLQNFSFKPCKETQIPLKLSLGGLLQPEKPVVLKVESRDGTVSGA

SMILES: COc1cc(C(=O)NS(=O)(=O)c2ccccc2C)ccc1Cc1cn(C)c2ccc(NC(=O)OC3CCCC3)cc12 [Example 1, reference compound]
- % increase of HLM degradation half-life, 5%-15% [1]: + (5%-15%)

SMILES: [2H]C([2H])([2H])Oc1cc(C(=O)NS(=O)(=O)c2ccccc2C)ccc1Cc1cn(C)c2ccc(NC(=O)OC3CCCC3)cc12 [Example 2]
- % increase of HLM degradation half-life, 5%-15% [1]: + (5%-15%)

SMILES: [2H]C([2H])([2H])c1ccccc1S(=O)(=O)NC(=O)c1ccc(Cc2cn(C)c3ccc(NC(=O)OC4CCCC4)cc23)c(OC)c1 [Example 3]
- % increase of HLM degradation half-life, 15%-25% [1]: + (15%-25%)

SMILES: [2H]C([2H])([2H])n1cc(Cc2ccc(C(=O)NS(=O)(=O)c3ccccc3C)cc2OC)c2cc(NC(=O)OC3CCCC3)ccc21 [Example 4]
- % increase of HLM degradation half-life, 15%-25% [1]: + (15%-25%)

SMILES: [2H]C([2H])([2H])Oc1cc(C(=O)NS(=O)(=O)c2ccccc2C([2H])([2H])[2H])ccc1Cc1cn(C([2H])([2H])[2H])c2ccc(NC(=O)OC3([2H])C([2H])([2H])C([2H])([2H])C([2H])([2H])C3([2H])[2H])cc12 [Example 6]
- % increase of HLM degradation half-life, 15%-25% [1]: + (15%-25%)

SMILES: [2H]C([2H])([2H])Oc1cc(C(=O)NS(=O)(=O)c2ccccc2C([2H])([2H])[2H])ccc1Cc1cn(C([2H])([2H])[2H])c2ccc(NC(=O)OC3CCCC3)cc12 [Example 7]
- % increase of HLM degradation half-life, column >25% [1]: + (>25%)

SMILES: COc1cc(C(=O)NS(=O)(=O)c2ccccc2C)ccc1Cc1cn(C)c2ccc(NC(=O)OC3CCCC3)cc12 [zafirlukast, 4-(5-cyclopentyloxy-carbonylamino-1-methyl-indol-3-ylmethyl)-3-methoxy-N—O-tolylsulfonylbenzamide]
- hepatotoxicity [2]: occasional idiosyncratic hepatotoxicity
- inhibition of cytochrome P450 CYP3A4 isoenzyme (cytochrome P450 CYP3A4): inhibits
- inhibition of cytochrome P450 CYP2C9 isoenzyme (cytochrome P450 CYP2C9): inhibits
